Marks after values point to notes of the source that are not given here.
Assays:
LAPC-4 xenografts = system: LAPC-4 xenografts
Source text: The xenograft experiment was approved by the Université Laval Animal Care Committee (Comité de Protection des Animaux de l’Université Laval, Québec, QC, Canada) and carried out in an animal facility approved by the Canadian Council on Animal Care (CCAC). Homozygous male Balb/c athymic nude mice (~42 days old, weighing approximately 28 g) were obtained from Charles River Inc. (Saint-Constant, QC, Canada) and housed (4 to 5) in vinyl micro-isolated ventilated cages equipped with air lids. Cages were kept in laminar airflow hoods and maintained in pathogen-limiting conditions. The animals were housed under a controlled environment at 22 ± 3 °C with 50 ± 20% relative humidity and light set at 12 h/day (light on at 07:15) during the acclimatization and study periods. Sterile water and rodent food (Rodent Diet #T.2018.15, Harlan Teklad, Madison, WI, USA) were provided ad libitum.
After an acclimatization period of 5 days, the mice were inoculated into both flanks by subcutaneous (SC) injection of 4 × 10^6 LAPC-4 cells (Passage 14) in 0.1 mL of growth medium containing 50% Matrigel (BD Biosciences, Mississauga, ON, Canada) via a 2.5-cm long 22-gauge needle. Two weeks later, mice that developed tumors were randomized according to tumor volume, divided into […] groups (Gr-1 to Gr-8), and treated over a period of 28 days. A bilateral orchiectomy was performed under isoflurane-induced anesthesia for Gr-1 but not for Gr-2 to Gr-8. Both Gr-1 (CTX control (CTL), 9 mice, 16 tumors) and Gr-2 (intact CTL, 9 mice, 18 tumors) were treated with 0.1 mL of the vehicle alone (8% DMSO/92% propylene glycol (PG) administered by gavage (PO). Gr-3 (30 mg/kg/PO, 10 mice, 19 tumors) received 0.843 mg of RM-581. Gr-4 (10 mg/kg/PO, 10 mice, 20 tumors) received 0.281 mg of RM-581. Gr-5 (3 mg/kg/PO, 10 mice, 18 tumors) received 0.084 mg of RM-581. Gr-6 (60 mg/kg/SC, 9 mice, 18 tumors) received 1.686 mg of abiraterone. Gr-7 (60 mg/kg/PO, 9 mice, 17 tumors) received 1.686 mg of abiraterone acetate. Gr-8 (4 mg/kg/IP, 9 mice, 17 tumors) received 0.112 mg of docetaxel.
RM-581 and abiraterone acetate were administered six days a week PO; abiraterone was administered six days a week SC; and docetaxel was administered twice a week by intraperitoneal (IP) injection. RM-581 was first dissolved in DMSO, and thereafter we added PG to obtain the appropriate concentration in the vehicle fluid (8% DMSO/92% PG). Abiraterone acetate and abiraterone were dissolved in 0.3% hydroxypropyl cellulose in saline (0.9% NaCl), while docetaxel was first dissolved in DMSO, and thereafter we added phosphate-buffered saline (PBS) to obtain the proper concentration in the carrier fluid (0.5% DMSO/99.5% PBS). All solutions were prepared one day prior to the initiation of treatment and stored at 4 °C under constant agitation.
The mice were weighed at the start and end of the protocol. Tumor area (mm^2) was calculated twice a week using two perpendicular diameters (L and W), which were recorded using a caliper, and the formula L/2 × W/2 × π. The area measured on the first day of treatment was fixed at 100%. At the end of the studies and 3 h after the last treatment, the mice were terminally anesthetized, and their final body weights were measured. Tumors, liver, kidney, and total prostate were collected from mice during necropsy, while blood was collected by cardiac puncture. Tissues and plasma were immediately frozen at −80 °C until analysis.

[1] = system: androgen-dependent and androgen-independent PC cell lines; settings: cited from earlier work
LAPC-4 cells [2] = assay: LAPC-4 cell viability proliferation and combination index assays (MTS, 6 days); format: cell-based, human; settings: LAPC-4, six days
Method: LAPC-4 cells (1 × 10^4 cells/well) were seeded in triplicate in 96-well plates in IMDM (Iscove’s modified Dulbecco’s medium) (90 μL) supplemented (v/v) with 5% fetal FBS, 1% L-glutamine, 1% insulin, and 1% penicillin/streptomycin. The cells were incubated at 37 °C in a 5% CO2 humidified atmosphere for 24 h. […] After 6 days of incubation, the cell proliferation was determined by adding 10 µL of MTS followed by incubation at 37 °C for 4 h. Plates were then analyzed at 490 nm using a Tecan M-200 microplate reader (Männedorf, Switzerland). Using GraphPad Prism 7 software, the IC50 values were calculated. The values represent the average of two independent experiments performed in triplicate. According to the Chou–Talalay method and using the following formula, the CI (combination) was calculated. CI=(D)1/(DX)1+(D)2/(DX)2
Denominators (DX)l and (DX)2 are the doses of individual drugs required to achieve a given effect level, and numerators (D)1 and (D)2 are the concentrations of each drug present in combination to trigger the same effect level. When the drugs interact additively, CI = 1, but a CI < 1 indicates a synergistic interaction, and a CI > 1 indicates an antagonistic effect.

LAPC-4 cells [3] = assay: Gene expression study by qPCR; format: cell-based, human; settings: RM-581 5 µM or atorvastatin 10 µM, CTL fixed at 1.0
Method: LAPC-4 cells (3 × 10^5) were treated with RM-581 (1, 2, and 5 µM) at different times (6, 18, 24, and 36 h) and the expression of various genes was determined as previously reported. Primer sequences used for the analysis of each gene are reported in Table S3 (Supplementary Materials).

LAPC-4 cells [4] = assay: Total cholesterol in LAPC-4 cells (kit); format: cell-based, human; settings: 18, 36, or 72 h; RM-581 2 μM or atorvastatin 10 μM
Method: A cholesterol quantification kit provided by Sigma-Aldrich (Catalog Number MAK043) was used following the manufacturer’s instructions to determine the concentration of total cholesterol, free cholesterol, and cholesteryl ester in samples. The cholesterol contents were measured in samples from two different protocols. […] Secondly, in tumor, liver, and plasma obtained at the end of the LAPC-4 xenograft experiment (control group and the group treated with RM-581 at 10 mg/kg/PO).

PC-3 xenograft = system: PC-3 xenograft; design: method as in PMID 34681843; settings: PC-3 xenograft, 4 mg/kg IP; cited from earlier work
PC-3 (AR−) cells = system: PC-3 (AR−) cells; design: method as in earlier work; settings: ref 52 Furuya et al.; cited from earlier work
LNCaP (AR+) cells = system: LNCaP (AR+) cells; design: method as in earlier work; settings: ref 52 Furuya et al.; cited from earlier work

CC(=O)O[C@H]1CC[C@@]2(C)C(=CC[C@@H]3[C@@H]2CC[C@]2(C)C(c4cccnc4)=CC[C@@H]32)C1 [abiraterone acetate, reference compound]
effect on tumor compared to intact group (LAPC-4 xenografts; 60 mg/kg PO, day 28): no longer significant
IC50 [1]: > 10 µM

C[C@]12CC[C@H](O)CC1=CC[C@@H]1[C@@H]2CC[C@]2(C)C(c3cccnc3)=CC[C@@H]12 [abiraterone, reference compound]
IC50 (LAPC-4 cells [2]; Homo sapiens, LAPC4, 144 h, single drugs and 1:1 combinations, read-out: IC50 (Figure 2B)): 11.5 µM
day of significantly different effect vs intact control (LAPC-4 xenografts; 60 mg/kg SC): 18 days
tumor reduction compared to intact control group (LAPC-4 xenografts; 60 mg/kg SC, 6 days a week, day 28): 40%

CC(C)c1c(C(=O)Nc2ccccc2)c(-c2ccccc2)c(-c2ccc(F)cc2)n1CC[C@@H](O)C[C@@H](O)CC(=O)O [atorvastatin, reference compound]
ACAT1 mRNA expression (LAPC-4 cells [3]; 6 h): 1.0
ACLY mRNA expression (LAPC-4 cells [3]; 6 h): 1.0
FASN mRNA expression (LAPC-4 cells [3]; 6 h): 1.2
HMGCR mRNA expression (LAPC-4 cells [3]; 6 h): 1.4 *
HMGCS1 mRNA expression (LAPC-4 cells [3]; 6 h): 1.3
LDLR mRNA expression (LAPC-4 cells [3]; 6 h): 1.0
MVD mRNA expression (LAPC-4 cells [3]; 6 h): 1.6 *
MVK mRNA expression (LAPC-4 cells [3]; 6 h): 1.5
SCD1 mRNA expression (LAPC-4 cells [3]; 6 h): 1.4
ACAT1 mRNA expression (LAPC-4 cells [3]; 18 h): 1.0
ACLY mRNA expression (LAPC-4 cells [3]; 18 h): 1.2
FASN mRNA expression (LAPC-4 cells [3]; 18 h): 1.3
HMGCR mRNA expression (LAPC-4 cells [3]; 18 h): 1.8 *
HMGCS1 mRNA expression (LAPC-4 cells [3]; 18 h): 3.5 *
LDLR mRNA expression (LAPC-4 cells [3]; 18 h): 1.8 *
MVD mRNA expression (LAPC-4 cells [3]; 18 h): 2.6 *
MVK mRNA expression (LAPC-4 cells [3]; 18 h): 2.0 *
SCD1 mRNA expression (LAPC-4 cells [3]; 18 h): 1.6 *
ACAT1 mRNA expression (LAPC-4 cells [3]; 24 h): 1.0
ACLY mRNA expression (LAPC-4 cells [3]; 24 h): 1.9 *
FASN mRNA expression (LAPC-4 cells [3]; 24 h): 1.7 *
HMGCR mRNA expression (LAPC-4 cells [3]; 24 h): 2.6 *
HMGCS1 mRNA expression (LAPC-4 cells [3]; 24 h): 2.7 *
LDLR mRNA expression (LAPC-4 cells [3]; 24 h): 1.8 *
MVD mRNA expression (LAPC-4 cells [3]; 24 h): 3.5 *
MVK mRNA expression (LAPC-4 cells [3]; 24 h): 2.5 *
SCD1 mRNA expression (LAPC-4 cells [3]; 24 h): 2.6 *
ACAT1 mRNA expression (LAPC-4 cells [3]; 36 h): 1.1
ACLY mRNA expression (LAPC-4 cells [3]; 36 h): 2.2 *
FASN mRNA expression (LAPC-4 cells [3]; 36 h): 1.8 *
HMGCR mRNA expression (LAPC-4 cells [3]; 36 h): 3.5 *
HMGCS1 mRNA expression (LAPC-4 cells [3]; 36 h): 2.0 *
LDLR mRNA expression (LAPC-4 cells [3]; 36 h): 2.5 *
MVD mRNA expression (LAPC-4 cells [3]; 36 h): 4.0 *
MVK mRNA expression (LAPC-4 cells [3]; 36 h): 2.5 *
SCD1 mRNA expression (LAPC-4 cells [3]; 36 h): 4.5 *
Total cholesterol in LAPC-4 cells vs untreated cells (LAPC-4 cells [4]): did not show a significant difference

CC(=O)O[C@@]12CO[C@@H]1C[C@H](O)[C@@]1(C)C(=O)[C@H](O)C3=C(C)[C@@H](OC(=O)[C@H](O)[C@@H](NC(=O)OC(C)(C)C)c4ccccc4)C[C@@](O)([C@@H](OC(=O)c4ccccc4)[C@H]21)C3(C)C [docetaxel, reference compound]
cell growth plateau (LAPC-4 cells [2]; between 0.01 and 10 µM): around 25%
effect on tumor growth (LAPC-4 xenografts; 4 mg/kg IP twice a week): no significant effect
block of tumor growth (PC-3 xenograft): 35%

CCC(C)(C)C(=O)O[C@H]1C[C@@H](C)C=C2C=C[C@H](C)[C@H](CC[C@@H]3C[C@@H](O)CC(=O)O3)[C@H]21 [simvastatin]
LDLR expression (PC-3 (AR−) cells): decreased
intracellular cholesterol ratio (PC-3 (AR−) cells): decreased
LDLR expression (LNCaP (AR+) cells): increased
intracellular cholesterol ratio (LNCaP (AR+) cells): without affecting

Reference: publication PMC10252594 (Cancers, 2023)
